Reference: patent US12012408B2, “Purine compounds and method for the treatment of cancer” (THE ROYAL INSTITUTION FOR THE ADVANCEMENT OF …, priority 2018, dated 2024)

Assays:
[1] = system: 4T1 cells (triple-negative breast carcinoma); experiment: In vivo orthotopic allograft model of breast cancer; parameters: species or system BALB/c mice
Procedure: All experiments were carried out according to protocol number 4101 of the McGill University Animal Care Committee. Mouse mammary carcinoma 4T1 cells (1×10^6 cells/each mouse) were transplanted into the mammary fat pad of BALB/c mice. […] Tumor size was measured using a caliper, and tumor volume was calculated as […] (length×width2). Mice were sacrificed 40 days after transplanting. Tumor tissues were isolated and fixed in 10% formalin. The lungs were fixed in 10% Bouin's fixative and lung metastatic nodules on the surface were counted using a stereomicroscope (Optimax; Leica).

[2] = target: Janus kinase 2 (JAK2) (Homo sapiens, UniProt O60674); experiment: SelectScreen kinase profiling (Invitrogen), high-throughput screening against a panel of kinases; format: biochemical; conditions: 100 nM screening concentration
Janus kinase 2 (JAK2), sequence (O60674 whole entry): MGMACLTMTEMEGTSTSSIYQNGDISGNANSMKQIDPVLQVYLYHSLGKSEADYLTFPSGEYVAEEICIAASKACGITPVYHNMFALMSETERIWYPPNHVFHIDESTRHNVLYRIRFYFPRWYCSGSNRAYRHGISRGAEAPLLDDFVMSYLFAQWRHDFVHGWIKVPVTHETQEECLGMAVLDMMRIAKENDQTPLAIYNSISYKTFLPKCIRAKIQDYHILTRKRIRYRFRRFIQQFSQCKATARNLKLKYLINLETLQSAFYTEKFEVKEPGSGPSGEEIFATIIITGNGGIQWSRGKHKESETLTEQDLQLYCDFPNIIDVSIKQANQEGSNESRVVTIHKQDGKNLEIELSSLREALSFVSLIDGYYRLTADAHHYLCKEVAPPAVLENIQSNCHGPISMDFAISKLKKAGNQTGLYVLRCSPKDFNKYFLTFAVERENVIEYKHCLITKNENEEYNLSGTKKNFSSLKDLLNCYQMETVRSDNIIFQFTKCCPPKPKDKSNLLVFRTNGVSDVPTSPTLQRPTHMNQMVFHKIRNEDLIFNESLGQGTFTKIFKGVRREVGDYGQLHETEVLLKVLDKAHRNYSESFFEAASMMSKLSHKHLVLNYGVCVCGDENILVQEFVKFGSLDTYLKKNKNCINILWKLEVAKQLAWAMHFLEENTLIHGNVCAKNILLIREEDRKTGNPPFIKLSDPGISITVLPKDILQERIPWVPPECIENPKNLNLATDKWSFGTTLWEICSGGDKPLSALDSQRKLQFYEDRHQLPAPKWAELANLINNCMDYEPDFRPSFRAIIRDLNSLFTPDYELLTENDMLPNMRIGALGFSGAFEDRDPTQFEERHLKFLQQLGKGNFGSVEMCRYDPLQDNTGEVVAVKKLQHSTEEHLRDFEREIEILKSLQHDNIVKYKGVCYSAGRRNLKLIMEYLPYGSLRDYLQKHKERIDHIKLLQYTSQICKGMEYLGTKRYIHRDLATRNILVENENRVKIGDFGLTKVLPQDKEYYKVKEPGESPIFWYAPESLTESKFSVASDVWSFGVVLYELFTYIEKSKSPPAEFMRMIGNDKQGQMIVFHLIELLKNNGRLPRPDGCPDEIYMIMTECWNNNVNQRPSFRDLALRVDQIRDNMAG
Procedure: (§1) FIG. S3A represents the SelectScreen kinase profiling (Invitrogen) results obtained against a panel of kinases for SLLN-15 at 100 nM.
(§2) To further evaluate cellular Aurora kinase inhibitory activity of SLLN-15, western blot analysis was carried out in both MDA-MB-231 and BT-20 cell lines. […] To gain further insight into the mechanism underlying the regulation of Aurora A and B by SLLN-15, we next examined whether Aurora A and B were degraded via the proteasome pathway.

[3] = target: T1, Aurora kinase A (Homo sapiens, UniProt O14965); experiment: as above; format: biochemical; conditions: 100 nM screening concentration
T1 sequence (O14965 1-403): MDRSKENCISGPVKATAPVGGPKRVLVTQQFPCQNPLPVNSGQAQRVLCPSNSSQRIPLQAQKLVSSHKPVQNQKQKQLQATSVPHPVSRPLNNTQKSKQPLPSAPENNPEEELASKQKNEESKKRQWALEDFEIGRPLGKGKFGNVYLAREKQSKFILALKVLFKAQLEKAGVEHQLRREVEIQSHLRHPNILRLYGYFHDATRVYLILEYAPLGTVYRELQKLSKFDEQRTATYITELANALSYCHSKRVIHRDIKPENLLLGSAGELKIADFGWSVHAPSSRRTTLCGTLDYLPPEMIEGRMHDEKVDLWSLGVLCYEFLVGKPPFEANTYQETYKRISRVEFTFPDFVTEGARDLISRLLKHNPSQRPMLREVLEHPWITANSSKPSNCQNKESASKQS
Procedure: as §1, §2

[4] = system: Aurora A, Aurora B, Aurora C in MDA-MB-231 and BT-20 cells; experiment: Western blot of cellular Aurora kinase phosphorylation and expression; format: cell-based
Procedure: (§3) Sub-confluent cells were washed with PBS, lysed in RIPA buffer (50 mM Tris-HCl at pH7.5, 150 mM sodium chloride, 1% tritonX-100, 0.1% SDS, 2 mM EDTA and 25 mM sodium fluoride) supplemented with 1 mM PMSF and protease inhibitor cocktail (Roche) for 10 min on ice and centrifuged (13,000 rpm at 4° C. for 20 min) to separate cell lysate. Cell lysate (50 μg protein, as measured by the Bradford protein assay) was then added with SDS sample buffer (Tris at pH 6.8, 20% glycerol, 5% SDS, bromophenol blue and β-mercaptoethanol) and boiled for 5 min. Samples were then resolved through 13% SDS-PAGE gels, transferred to nitrocellulose membrane, blotted with specific first antibodies at different dilution in cold room overnight, and then amplified with horseradish peroxidase-conjugated secondary antibodies for 1 hour in room temperature and enhanced by chemiluminescence detection system.
as §2

[5] = system: MDA-MB-231 and BT-20 cells; experiment: Light microscopy of cell morphology; format: cell-based; conditions: compared to control cells; more detached and shrunken cells
Text: FIG. S1 represents the cell morphological changes of MDA-MB-231 and BT-20 upon SLLN-15 treatment as visualized by light microscopy.
Within our quest to develop effective novel anti-cancer drug for TNBCs, we designed and synthesized a library of compounds derived from seleno-purine scaffolds. A high-throughput screening of major classes of kinases and enzymes involved in carcinogenesis identified a 4-selenomorpholinophenyl- and tetrahydroselenophene-substituted diamino-purines, namely SLLN-15 (FIG. 1A), as a potent small molecule capable of inhibiting TNBC cells. […] Subsequent cell-based assays confirmed this small molecule to inhibit the proliferation of two TNBC cell lines, BT-20 and MDA-MB-231.

[6] = system: MDA-MB-231 and BT-20 cells; experiment: BrdU labeling cell proliferation assay; format: cell-based; conditions: FIG. 6D
Procedure: The proliferation effects of SLLN-15 were assessed using the bromodeoxyuridine (BrdU) Cell proliferation Assay Kit (Biovision). Cells were seeded at a density of 5000 cells/well in a 96-well plate and treated with SLLN-15 or rapamycin (Cayman chemical) as indicated concentration or DMSO for 24 hours. The plates were read on FLUOstar OPTIMA microplate reader (BMG Labtech, Ortenberg, Germany) at 450 nm. Assays were performed in triplicate on three independent experiments.

[7] = system: MDA-MB-231-M2 or 4T1 tumors; experiment: In vivo anti-metastatic activity in tumor-bearing mice
Text: Breast cancer stem-like cells (BCSCs), heterogeneously subsisting as CD24low/CD44high and ALDHhigh subpopulations, are enriched in aggressive breast cancer subtypes and believed to be responsible for driving metastatic colonization. Despite evidence of a clinical association between BCSC and poor prognosis, effective therapeutic means to target this cell population is lacking. We identified SLLN-15 as a compound with selective anti-sternness activity across a panel of cell lines expressing ALDHhigh and CD24low/CD44high markers, including MDA-MB-231, SUM-149PT, BT-20, SKBR3, 4T1 and several anaplastic thyroid cell lines. […] In summary, our data foster that targeting regulatory networks driving sternness represent important therapeutic targets for treating metastatic breast disease.

[8] = system: cleaved-PARP, cleaved-caspase 3, Bcl-2 in MDA-MB-231 and BT-20 cells; experiment: Western blot of indicators of apoptosis; format: cell-based
Procedure: as §3
Considering apoptosis is the major form of cell death induced by chemotherapeutic agent, we seek to identify whether the anticancer effect of SLLN-15 was mediated via apoptosis in breast cancer cells.

c1nc2nc(Nc3ccc(N4CC[Se]CC4)cc3)nc(N[C@H]3CC[Se]C3)c2[nH]1 [SLLN-15]
tumor volumes ([1]; 30 mg/kg given PO, compared to vehicle, FIG. 1D): reduced
tumor weights ([1]; 30 mg/kg given PO, compared to vehicle, FIG. 1E): reduced
tumor allograft growth rate ([1]; 30 mg/kg given PO, compared to vehicle, FIGS. 1D and E): grew at a slower rate
number of lung metastases ([1]; compared with vehicle-treated animals, FIG. 1F): significant inhibition of the number of lung metastases
inhibition of Janus kinase 2 (JAK2) [2]: 85%
inhibition of Aurora kinase A [3]: 91%
phosphorylation of Aurora A at Thr288, Aurora B at Thr232, Aurora C at Thr198 ([4]; 1 μM, FIG. 7A): strongly inhibited phosphorylation of both Aurora A at Thr288 and B at Thr232 but not Aurora C at Thr198
expression of Aurora A over time ([4]; BT-20 cells, 6 hours post-treatment, FIG. 7C): downregulated the expression of Aurora A at earlier time points
Aurora A and Aurora B expression ([4]; dose-dependent, FIG. 7A): decreased both Aurora A and Aurora B expression
cell morphology [5]: induced obvious morphological changes
anti-proliferation potency compared to rapamycin [6]: more potent anti-proliferation agents
BrdU-positive cells ([6]; dose-dependent): lower percentage of BrdU-positive cells
anti-metastatic activity ([7]; mice bearing MDA-MB-231-M2 or 4T1 tumors, administered intraperitoneally): significant anti-metastatic activity
MDA-MB-231-M2 progression to metastasis ([7]; pretreatment ex vivo prior to mouse implantation): significantly attenuated
indicators of apoptosis: upregulation of cleaved-PARP and cleaved-caspase 3, downregulation of Bcl-2 ([8]; FIG. 6B): not SLLN-15 treated cells
apoptosis ([8]; up to 48 hours post-exposure, breast cancer cells): no significant apoptosis was observed
